Where two headings read alike, the source gives them in different places.
What was measured:
[1] = Stability in liver microsomes, human; conditions: for AUC: human
[2] = Stability in liver microsomes, rat
[3] = Stability in liver microsomes, dog
[4] = Stability in cryopreserved hepatocytes, human; conditions: for AUC: human
[5] = Stability in cryopreserved hepatocytes, rat; conditions: for AUC: rat
[6] = Stability in cryopreserved hepatocytes, dog; conditions: for AUC: dog
[7] = Stability in human subcutaneous skin homogenate; conditions: for AUC: human
[8] = rat
[9] = dog

In the case of `CCCCCC(CCC1C(O)CC2Cc3c(cccc3OCC(=O)O)CC21)OC(=O)CCN` (stereo not shown) [XXXVII], the “Trep Concentration 0 min” value [1] is reported as 0 µM, the “Trep Concentration 10 min” value [1] is reported as 0.0147 µM and the “Trep Concentration 20 min” value [1] is reported as 0 µM. The “Trep Concentration 30 min” value [1] was 0.0153 µM, the “Trep Concentration 60 min” value [1] was 0.00987 µM and the AUC [1] was 0.60 µmol·min/L. For the same compound, the “Trep Concentration 0 min” value [2] was 0 µM, the “Trep Concentration 10 min” value [2] was 0 µM and the “Trep Concentration 20 min” value [2] was 0 µM. For the same compound, the “Trep Concentration 30 min” value [2] was 0 µM, the “Trep Concentration 60 min” value [2] was 0 µM and the “Trep Concentration 0 min” value [3] was 0.0163 µM. The “Trep Concentration 20 min” value [3] was 0.0295 µM, the “Trep Concentration 30 min” value [3] was 0.0273 µM and the “Trep Concentration 60 min” value [3] was 0.0415 µM. The “Trep Concentration (μM) 0 min” value [4] was 0 µM, the “Trep Concentration (μM) 15 min” value [4] was 0.0481 µM and the “Trep Concentration (μM) 30 min” value [4] was 0.041 µM. The “Trep Concentration (μM) 60 min” value [4] was 0.0715 µM, the “Trep Concentration (μM) 120 min” value [4] was 0.115 µM and the “AUC” value [4] was 8.31 µmol·min/L. For the same compound, the “Trep Concentration (μM) 0 min” value [5] was 0 µM, the “Trep Concentration (μM) 15 min” value [5] was 0.0136 µM and the “Trep Concentration (μM) 30 min” value [5] was 0.0199 µM. The “Trep Concentration (μM) 60 min” value [5] was 0.106 µM, the “Trep Concentration (μM) 120 min” value [5] was 0.0527 µM and the “AUC” value [5] was 7.00 µmol·min/L. The “Trep Concentration (μM) 0 min” value [6] was 0 µM, the “Trep Concentration (μM) 15 min” value [6] was 0.0424 µM and the “Trep Concentration (μM) 30 min” value [6] was 0.0879 µM. For the same compound, the “Trep Concentration (μM) 60 min” value [6] was 0.147 µM, the “Trep Concentration (μM) 120 min” value [6] was 0.248 µM and the “AUC” value [6] was 16.67 µmol·min/L. For the same compound, the “Trep Concentration 0 min” value [7] was 0 µM, the “Trep Concentration 30 min” value [7] was 0 µM and the “Trep Concentration 60 min” value [7] was 0.0137 µM. For the same compound, the “Trep Concentration 120 min” value [7] was 0.0304 µM, the AUC [7] was 1.53 µmol·min/L and the AUC [8] was 0.00 µmol·min/L. For the same compound, the AUC [9] was 1.72 µmol·min/L.
With `CCCCCC(CCC1C(O)CC2Cc3c(cccc3OCC(=O)O)CC21)OC(=O)C1CCCN1` (stereo not shown) [XXXVI] the “Trep Concentration 0 min” value [1] was 0.443 µM, the “Trep Concentration 10 min” value [1] was 0.502 µM and the “Trep Concentration 20 min” value [1] was 0.478 µM. For the same compound, the “Trep Concentration 30 min” value [1] was 0.379 µM, the “Trep Concentration 60 min” value [1] was 0.316 µM and the AUC [1] was 24.34 µmol·min/L. The “Trep Concentration 0 min” value [2] was 0.154 µM, the “Trep Concentration 10 min” value [2] was 0.242 µM and the “Trep Concentration 20 min” value [2] was 0.326 µM. The “Trep Concentration 30 min” value [2] was 0.342 µM, the “Trep Concentration 60 min” value [2] was 0.463 µM and the “Trep Concentration 0 min” value [3] was 0.102 µM. The “Trep Concentration 10 min” value [3] was 0.199 µM, the “Trep Concentration 20 min” value [3] was 0.309 µM and the “Trep Concentration 30 min” value [3] was 0.353 µM. The “Trep Concentration 60 min” value [3] was 0.483 µM, the “Trep Concentration (μM) 0 min” value [4] was 0 µM and the “Trep Concentration (μM) 15 min” value [4] was 0.502 µM. For the same compound, the “Trep Concentration (μM) 30 min” value [4] was 0.512 µM, the “Trep Concentration (μM) 60 min” value [4] was 0.45 µM and the “Trep Concentration (μM) 120 min” value [4] was 0.482 µM. The “AUC” value [4] was 53.76 µmol·min/L, the “Trep Concentration (μM) 0 min” value [5] was 0.00925 µM and the “Trep Concentration (μM) 15 min” value [5] was 0.494 µM. The “Trep Concentration (μM) 30 min” value [5] was 0.511 µM, the “Trep Concentration (μM) 60 min” value [5] was 0.505 µM and the “Trep Concentration (μM) 120 min” value [5] was 0.499 µM. For the same compound, the “AUC” value [5] was 56.67 µmol·min/L, the “Trep Concentration (μM) 0 min” value [6] was 0 µM and the “Trep Concentration (μM) 15 min” value [6] was 0.229 µM. The “Trep Concentration (μM) 30 min” value [6] was 0.276 µM, the “Trep Concentration (μM) 60 min” value [6] was 0.264 µM and the “Trep Concentration (μM) 120 min” value [6] was 0.279 µM. The “AUC” value [6] was 29.90 µmol·min/L, the “Trep Concentration 0 min” value [7] was 0 µM and the “Trep Concentration 30 min” value [7] was 0.328 µM. The “Trep Concentration 60 min” value [7] was 0.559 µM, the “Trep Concentration 120 min” value [7] was 0.852 µM and the AUC [7] was 60.56 µmol·min/L. For the same compound, the AUC [8] was 20.24 µmol·min/L and the AUC [9] was 19.90 µmol·min/L.
In the case of `CCCCCC(CCC1C(O)CC2Cc3c(cccc3OCC(=O)O)CC21)OC(=O)C(N)CCCCN` (stereo not shown) [XXXV], the “Trep Concentration 0 min” value [1] is reported as 0.0227 µM, the “Trep Concentration 10 min” value [1] is reported as 0.0216 µM and the “Trep Concentration 20 min” value [1] is reported as 0.0492 µM. For the same compound, the “Trep Concentration 30 min” value [1] was 0.0352 µM, the “Trep Concentration 60 min” value [1] was 0.0539 µM and the AUC [1] was 2.33 µmol·min/L. The “Trep Concentration 0 min” value [2] was 0.0254 µM, the “Trep Concentration 10 min” value [2] was 0.0305 µM and the “Trep Concentration 20 min” value [2] was 0.0389 µM. For the same compound, the “Trep Concentration 30 min” value [2] was 0.0458 µM, the “Trep Concentration 60 min” value [2] was 0.079 µM and the “Trep Concentration 0 min” value [3] was 0.0159 µM. For the same compound, the “Trep Concentration 10 min” value [3] was 0.0246 µM, the “Trep Concentration 20 min” value [3] was 0.0405 µM and the “Trep Concentration 30 min” value [3] was 0.0449 µM. The “Trep Concentration 60 min” value [3] was 0.0788 µM, the “Trep Concentration (μM) 0 min” value [4] was 0 µM and the “Trep Concentration (μM) 15 min” value [4] was 0.0481 µM. For the same compound, the “Trep Concentration (μM) 30 min” value [4] was 0.0749 µM, the “Trep Concentration (μM) 60 min” value [4] was 0.123 µM and the “Trep Concentration (μM) 120 min” value [4] was 0.194 µM. For the same compound, the “AUC” value [4] was 13.76 µmol·min/L, the “Trep Concentration (μM) 0 min” value [5] was 0 µM and the “Trep Concentration (μM) 15 min” value [5] was 0.0876 µM. For the same compound, the “Trep Concentration (μM) 30 min” value [5] was 0.129 µM, the “Trep Concentration (μM) 60 min” value [5] was 0.169 µM and the “Trep Concentration (μM) 120 min” value [5] was 0.239 µM. The “AUC” value [5] was 18.99 µmol·min/L, the “Trep Concentration (μM) 0 min” value [6] was 0 µM and the “Trep Concentration (μM) 15 min” value [6] was 0.0601 µM. The “Trep Concentration (μM) 30 min” value [6] was 0.0885 µM, the “Trep Concentration (μM) 60 min” value [6] was 0.127 µM and the “Trep Concentration (μM) 120 min” value [6] was 0.139 µM. The “AUC” value [6] was 12.78 µmol·min/L, the “Trep Concentration 0 min” value [7] was 0 µM and the “Trep Concentration 30 min” value [7] was 0.857 µM. The “Trep Concentration 60 min” value [7] was 0.82 µM, the “Trep Concentration 120 min” value [7] was 0.929 µM and the AUC [7] was 90.48 µmol·min/L. The AUC [8] was 2.92 µmol·min/L and the AUC [9] was 2.81 µmol·min/L.
With `CCCCCC(CCC1C(O)CC2Cc3c(cccc3OCC(=O)O)CC21)OC(=O)CCC(=O)O` (stereo not shown) [XX] the “Trep Concentration 0 min” value [1] was 0.048 µM, the “Trep Concentration 10 min” value [1] was 0.087 µM and the “Trep Concentration 20 min” value [1] was 0.092 µM. The “Trep Concentration 30 min” value [1] was 0.1 µM, the “Trep Concentration 60 min” value [1] was 0.16 µM and the AUC [1] was 6.43 µmol·min/L. For the same compound, the “Trep Concentration 0 min” value [2] was 0.12 µM, the “Trep Concentration 10 min” value [2] was 0.24 µM and the “Trep Concentration 20 min” value [2] was 0.29 µM. The “Trep Concentration 30 min” value [2] was 0.38 µM, the “Trep Concentration 60 min” value [2] was 0.54 µM and the “Trep Concentration 0 min” value [3] was 0.019 µM. For the same compound, the “Trep Concentration 10 min” value [3] was 0.044 µM, the “Trep Concentration 20 min” value [3] was 0.087 µM and the “Trep Concentration 30 min” value [3] was 0.11 µM. For the same compound, the “Trep Concentration 60 min” value [3] was 0.2 µM, the “Trep Concentration (μM) 0 min” value [4] was 0 µM and the “Trep Concentration (μM) 15 min” value [4] was 0.1 µM. For the same compound, the “Trep Concentration (μM) 30 min” value [4] was 0.16 µM, the “Trep Concentration (μM) 60 min” value [4] was 0.246 µM and the “Trep Concentration (μM) 120 min” value [4] was 0.344 µM. The “AUC” value [4] was 26.49 µmol·min/L, the “Trep Concentration (μM) 0 min” value [5] was 0.0112 µM and the “Trep Concentration (μM) 15 min” value [5] was 0.441 µM. The “Trep Concentration (μM) 30 min” value [5] was 0.542 µM, the “Trep Concentration (μM) 60 min” value [5] was 0.594 µM and the “Trep Concentration (μM) 120 min” value [5] was 0.609 µM. For the same compound, the “AUC” value [5] was 63.89 µmol·min/L, the “Trep Concentration (μM) 0 min” value [6] was 0 µM and the “Trep Concentration (μM) 15 min” value [6] was 0.0459 µM. For the same compound, the “Trep Concentration (μM) 30 min” value [6] was 0.0824 µM, the “Trep Concentration (μM) 60 min” value [6] was 0.136 µM and the “Trep Concentration (μM) 120 min” value [6] was 0.198 µM. The “AUC” value [6] was 14.60 µmol·min/L, the “Trep Concentration 0 min” value [7] was 0 µM and the “Trep Concentration 30 min” value [7] was 0 µM. The “Trep Concentration 60 min” value [7] was 0.019 µM, the “Trep Concentration 120 min” value [7] was 0.03 µM and the AUC [7] was 1.76 µmol·min/L. For the same compound, the AUC [8] was 21.60 µmol·min/L and the AUC [9] was 6.61 µmol·min/L.
